Measured values taken from patent US7678365B2, “Disinfecting oral rinse compositions and process for using the same” (priority 2001, dated 2010).

Columns and labels:
[1] = Acid ionization constants and lactic acid/lactate speciation; assay type: physicochemical
Text: […]. When citric acid is used as the supplemental acid, less total acid is required to achieve a desired pH than, say, when using malic acid, which is half the strength of citric (Ka1 of citric is 8.2×10^−4 vs. 3.9×10^−4 for malic acid). Thus a smaller amount of lactic acid is used when it represents, say, 10% of a lactic/citric combination than a lactic/malic combination; […]. In certain embodiments, the metal lactate in these compositions is an alkali, an alkaline earth lactate, or a heavier metal lactate. […]. Useful alkaline earth metal lactates include magnesium and calcium lactate. Available heavier metal lactates are ferrous and aluminum lactates, although the cation flavor is intrusive. […]. At pH 2.5 96% of the two lactic species exist as lactic acid, which drops to 70% at pH 3.5. […].
The acid and chlorite solutions had first been equilibrated at 37° C., to simulate body temperature. The solution pHs, in both cases, were 3.0. After 10 minutes, the solution Absorbance values were measured at a wavelength of 360 nm in a spectrophotometer, and the concentration of chlorine dioxide (ClO2) then calculated, using the molar extinction coefficient of 1,242 liter/mole.cm. […]

[2] = tested on: E. coli; test: AOAC Germicidal Test procedure; assay type: cell-based; settings: for E. coli organisms destroyed/killed: initial inoculum of E. coli 7.63 logs10/ml, equimolar amounts of the unionized acid form
Text: […]. […] […].

| Structure (SMILES) | fraction of the two lactic species existing as lactic acid ([1]; pH 2.5) [%] | fraction of the two lactic species existing as lactic acid ([1]; pH 3.5) [%] | fraction of the two lactic species existing as lactic acid ([1]; pH 4.0) [%] | E. coli organisms destroyed/killed [2] [logs10/ml] | residual E. coli organisms per ml after disinfection, malic acid-treated relative to lactic acid-treated suspension ([2]; malic acid vs lactic acid) [times] |
| --- | --- | --- | --- | --- | --- |
| CC(O)C(=O)O (stereo not drawn) [lactic acid] | 96 | 70 | 42 | 4.15 |  |
| O=C(O)CC(O)C(=O)O (stereo not drawn) [malic acid] |  |  |  | 1.45 | ~1500 |
